Drawing on PubChem BioAssay (NCI), this text covers GI50 and TGI for seven compounds.

Some test systems named below: A498 renal; SNB-75 CNS; NCI/ADR-RES ovarian; M14 melanoma; BT-549 breast; SN12C renal; SK-MEL-2 melanoma; K-562 leukemia; UO-31 renal; SNB-19 CNS.
Common to all, as to assay: growth of human tumour cells (NCI), 48 h

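Grown in 96-well plates, cells were treated for 48 hours with each compound at five concentrations. Insufficient inhibition: endpoint recorded as highest concentration tested. Abbreviation: GI50, concentration required for 50% inhibition of growth. TGI denotes the concentration required for complete inhibition of growth.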

For the compound `O=C(Nc1ccc(I)cc1F)c1cc(F)ccc1O`, the GI50 in the assay with A498 renal was 0.163 µM; with SNB-75 CNS, 0.225 µM; with NCI/ADR-RES ovarian it was 0.401 µM; in the assay with M14 melanoma it was 0.407 µM; in the assay on BT-549 breast it was 0.301 µM; in the assay on SN12C renal, 0.354 µM. The GI50 in the assay with SK-MEL-2 melanoma was 0.367 µM; in the assay with K-562 leukemia, 0.407 µM; with UO-31 renal, 0.236 µM; with SNB-19 CNS, 0.406 µM. The TGI in the assay with A498 renal was 0.634 µM; in the assay with SNB-75 CNS it was 2.31 µM; with NCI/ADR-RES ovarian it was greater than 27.7 µM; in the assay with M14 melanoma it was 3.26 µM; in the assay on BT-549 breast it was 1.05 µM; in the assay with SN12C renal, 3.77 µM. For the same compound, the TGI is 1.92 µM in the assay with SK-MEL-2 melanoma, greater than 42.1 µM in the assay on K-562 leukemia, 1.34 µM in the assay with UO-31 renal and greater than 100 µM with SNB-19 CNS.
On to `CCn1c(-c2nonc2N)nc2c(C#CC(C)(C)O)ncc(OCC3CCNCC3)c21`, for which the GI50 in the assay with A498 renal was 0.384 µM; in the assay with SNB-75 CNS it was 2.74 µM; in the assay on NCI/ADR-RES ovarian it was 12.8 µM; in the assay with M14 melanoma, 13.4 µM; with BT-549 breast it was 11 µM; in the assay on SN12C renal it was 9.17 µM. The GI50 in the assay with SK-MEL-2 melanoma is 11.7 µM; in the assay with K-562 leukemia, greater than 25 µM; in the assay on UO-31 renal, 6.42 µM; in the assay on SNB-19 CNS it was 10.6 µM. The TGI was 12.7 µM in the assay on A498 renal; greater than 23.3 µM in the assay on SNB-75 CNS; greater than 25 µM in the assay with NCI/ADR-RES ovarian; greater than 25 µM in the assay on M14 melanoma; greater than 25 µM in the assay with BT-549 breast; greater than 25 µM with SN12C renal. The TGI with SK-MEL-2 melanoma was greater than 25 µM; in the assay with K-562 leukemia, greater than 25 µM; in the assay on UO-31 renal it was 18.5 µM; in the assay with SNB-19 CNS, greater than 25 µM.
As for `COC(=O)C1=C(C)NC(C)=C(C(=O)OC)C1c1ccccc1[N+](=O)[O-]`, the GI50 in the assay on A498 renal is 11.3 µM; in the assay with SNB-75 CNS, 27 µM; in the assay on NCI/ADR-RES ovarian it was 49.3 µM; in the assay on M14 melanoma, greater than 100 µM; in the assay with BT-549 breast, greater than 100 µM; in the assay on SN12C renal, 82.2 µM. Further, the GI50 in the assay with SK-MEL-2 melanoma is greater than 100 µM; in the assay with K-562 leukemia, 78.8 µM; with UO-31 renal, 50 µM; in the assay on SNB-19 CNS, greater than 100 µM. The TGI in the assay with A498 renal was 56.3 µM; in the assay with SNB-75 CNS, greater than 100 µM; in the assay on NCI/ADR-RES ovarian it was greater than 100 µM; in the assay with M14 melanoma, greater than 100 µM; in the assay on BT-549 breast, greater than 100 µM; with SN12C renal, greater than 100 µM. The TGI in the assay on SK-MEL-2 melanoma, with K-562 leukemia, in the assay on UO-31 renal and with SNB-19 CNS was greater than 100 µM each time.
On to `COC(=O)CCCCCCCCC(=O)c1c(C)[nH]c(/C=C2\N=C(c3ccc[nH]3)C=C2OC)c1C`, for which the GI50 is greater than 100 µM in the assay on A498 renal; greater than 31 µM with SNB-75 CNS; 24.2 µM with NCI/ADR-RES ovarian; 2.64 µM in the assay with M14 melanoma; 3.39 µM with BT-549 breast; greater than 53.8 µM in the assay with SN12C renal. In addition, the GI50 in the assay on SK-MEL-2 melanoma was 8.85 µM; in the assay on K-562 leukemia, 1.08 µM; in the assay with UO-31 renal, 30.5 µM; in the assay on SNB-19 CNS, 59.1 µM. Moreover, the TGI in the assay with A498 renal was greater than 100 µM; in the assay with SNB-75 CNS, greater than 83.7 µM; in the assay with NCI/ADR-RES ovarian, greater than 100 µM; in the assay with M14 melanoma, greater than 21.3 µM; in the assay with BT-549 breast, greater than 100 µM; with SN12C renal, greater than 100 µM. In addition, the TGI in the assay with SK-MEL-2 melanoma is greater than 29.1 µM; in the assay with K-562 leukemia, greater than 34.2 µM; in the assay with UO-31 renal, greater than 73.6 µM; with SNB-19 CNS, greater than 100 µM.
`CCCCOc1nc2ccccc2cc1C1CNC(=O)c2ccccc2N1` (stereo not drawn): the GI50 is 0.807 µM in the assay with A498 renal; 1.75 µM with SNB-75 CNS; 2.12 µM in the assay with NCI/ADR-RES ovarian; 1.53 µM in the assay with M14 melanoma; 4.17 µM in the assay on BT-549 breast; 3.77 µM in the assay on SN12C renal. Further, the GI50 with SK-MEL-2 melanoma was 4.06 µM; in the assay with K-562 leukemia, 1.26 µM; in the assay on UO-31 renal, 2.83 µM; in the assay with SNB-19 CNS it was 5.55 µM. In addition, the TGI in the assay on A498 renal stood at 5.3 µM; in the assay on SNB-75 CNS, 12.2 µM; with NCI/ADR-RES ovarian it was 8.76 µM; in the assay with M14 melanoma, 9.03 µM; in the assay with BT-549 breast, 23.2 µM; with SN12C renal it was 18.9 µM. Besides, the TGI is 29.6 µM in the assay with SK-MEL-2 melanoma, 14.2 µM in the assay on K-562 leukemia, 20 µM in the assay with UO-31 renal and 44.8 µM in the assay with SNB-19 CNS.
With `CCOC(=O)Nc1ccc2nc(Sc3ccc(Cl)cc3)sc2c1`, the GI50 was 1.19 µM in the assay on A498 renal; 2.96 µM with SNB-75 CNS; 1.07 µM in the assay on NCI/ADR-RES ovarian; 1.66 µM with M14 melanoma; 11.6 µM in the assay on BT-549 breast; 6.49 µM with SN12C renal. Further, the GI50 with SK-MEL-2 melanoma is 2.56 µM; in the assay with K-562 leukemia, 0.423 µM; in the assay on UO-31 renal it was 9.57 µM; in the assay with SNB-19 CNS, 7.31 µM. Besides, the TGI was 26.8 µM with A498 renal; 33.9 µM in the assay with SNB-75 CNS; 47.3 µM in the assay with NCI/ADR-RES ovarian; 24.6 µM in the assay with M14 melanoma; 46.3 µM in the assay on BT-549 breast; greater than 100 µM in the assay on SN12C renal. The TGI was 26.4 µM in the assay with SK-MEL-2 melanoma, greater than 100 µM with K-562 leukemia, 79.4 µM in the assay with UO-31 renal and greater than 100 µM in the assay with SNB-19 CNS.
As for `CCOC(=O)CCC(NC(=O)c1ccc(Nc2nc3cc(N)cc(N)c3nc2-c2ccccc2)cc1)C(=O)OCC` (stereo not drawn), the GI50 is greater than 100 µM in the assay with SNB-75 CNS; 35 µM with NCI/ADR-RES ovarian; 11.9 µM in the assay with M14 melanoma; 40.1 µM in the assay with BT-549 breast; 26.2 µM with SN12C renal; 16.5 µM in the assay on SK-MEL-2 melanoma. Moreover, the GI50 with K-562 leukemia is 42.5 µM; in the assay on UO-31 renal it was greater than 46.6 µM; in the assay on SNB-19 CNS, greater than 46.4 µM. The TGI was greater than 100 µM with SNB-75 CNS; greater than 79.1 µM in the assay with NCI/ADR-RES ovarian; greater than 24.4 µM in the assay with M14 melanoma; greater than 100 µM in the assay on BT-549 breast; 58.1 µM in the assay with SN12C renal; greater than 86 µM in the assay on SK-MEL-2 melanoma. Moreover, the TGI in the assay on K-562 leukemia is greater than 100 µM; in the assay on UO-31 renal, greater than 87.1 µM; with SNB-19 CNS it was greater than 100 µM.
